According to PubChem BioAssay (NCI):
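Exposure lasted 48 hours, with cells grown in 96-well plates and compounds tested at five concentrations. TGI denotes the concentration required for complete inhibition of growth.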

Columns and labels:
Assay in all cases: NCI anticancer screen, dose series, 48 h
CCRF-CEM leukemia = tested on: CCRF-CEM leukemia
NCI/ADR-RES ovarian = tested on: NCI/ADR-RES ovarian
SK-OV-3 ovarian = tested on: SK-OV-3 ovarian
SNB-19 CNS = tested on: SNB-19 CNS
T-47D breast = tested on: T-47D breast
UACC-257 melanoma = tested on: UACC-257 melanoma
UACC-62 melanoma = tested on: UACC-62 melanoma
A498 renal = tested on: A498 renal
BT-549 breast = tested on: BT-549 breast
NCI-H522 lung = tested on: NCI-H522 lung

Row | Compound | TGI (CCRF-CEM leukemia) [µM] | TGI (NCI/ADR-RES ovarian) [µM] | TGI (SK-OV-3 ovarian) [µM] | TGI (SNB-19 CNS) [µM] | TGI (T-47D breast) [µM] | TGI (UACC-257 melanoma) [µM] | TGI (UACC-62 melanoma) [µM] | TGI (A498 renal) [µM] | TGI (BT-549 breast) [µM] | TGI (NCI-H522 lung) [µM]
1 | O=C1NCCCc2nonc21 | > 100 | > 100 | > 100 | > 100 | > 100 | > 100 | > 100 | – | – | –
2 | CN(C)c1ccc(-c2c(C#N)c(S)n(NS(=O)(=O)c3ccccc3)c(=O)c2C#N)cc1 | > 100 | 49.5 | > 100 | > 100 | – | > 100 | > 100 | > 100 | 61.7 | 44.5
3 | CSCCC(NCc1c(O)ccc2c(-c3ccccc3)cc(=O)oc12)C(=O)O (stereo not drawn) | > 100 | > 100 | > 100 | > 100 | > 100 | > 100 | > 100 | – | – | > 100
4 | CCC(C(=O)O)c1ccc(OCc2ccccc2)cc1 (stereo not drawn) | > 100 | – | > 100 | > 100 | – | > 100 | > 100 | > 100 | – | > 100
5 | Cc1nn(C(=O)Cc2ccccc2)c2c1C(c1ccccc1O)SC(N)=N2 (stereo not drawn) | > 100 | – | > 100 | > 100 | > 100 | > 100 | > 100 | > 100 | > 100 | > 100
6 | CN(C)C(CN)CC1=C(CC(CN)N(C)C)CCC1 (stereo not drawn) | > 100 | > 100 | > 100 | > 100 | – | > 100 | > 100 | > 100 | – | > 100
7 | NC(=O)C(=O)N/N=C1/c2ccccc2CC1C1(O)C(=O)Nc2c(Cl)cc(Cl)cc21 (stereo not drawn) | > 100 | – | > 100 | > 100 | – | > 100 | > 100 | > 100 | – | > 100
8 | CCN(CC)CCOC(NC(C)=O)(c1ccccc1)c1ccccc1 | > 100 | > 100 | > 100 | > 100 | > 100 | > 100 | > 100 | > 100 | – | –
9 | CCOC(=O)C1=C(C(C)=O)CSC(c2ccccc2)=N1 | > 100 | > 100 | > 100 | > 100 | – | > 100 | > 100 | > 100 | – | > 100
10 | COc1cc(/C=C2\C(=O)N(C(=O)Cc3ccccc3)N=C2C)ccc1O | > 100 | – | – | > 100 | – | > 100 | – | – | – | > 100
11 | O=C(CP(=O)(O)O)c1cccs1 | > 100 | – | > 100 | > 100 | – | > 100 | > 100 | > 100 | – | > 100
12 | CCNC(=O)Nc1ccccn1 | > 100 | – | > 100 | > 100 | > 100 | > 100 | > 100 | > 100 | > 100 | > 100
13 | COC(=O)c1ccccc1/C=C1/Cc2ccccc2C1=O | 98.5 | > 100 | > 100 | – | > 100 | 68.1 | > 100 | > 100 | – | > 100
14 | COCOc1ccc(OC)cc1 | > 100 | > 100 | > 100 | > 100 | – | > 100 | > 100 | > 100 | – | –
15 | CCC[C@H]1C(=O)N=C(N)N1C(=O)OCc1ccccc1 | – | > 100 | – | > 100 | – | > 100 | > 100 | > 100 | > 100 | > 100
16 | CC(C)=C[C@@H]1C[C@H](n2cc(C)c(=O)[nH]c2=O)ON1CCO | > 100 | > 100 | > 100 | > 100 | > 100 | > 100 | > 100 | > 100 | – | > 100
17 | CC(C)(C)N=c1n(C(C)(C)C)oc(=O)n1C(C)(C)C | > 100 | > 100 | > 100 | > 100 | – | > 100 | > 100 | > 100 | > 100 | –
18 | CCC12C[N+]3([O-])CCc4c([nH]c5ccccc45)C(C(=O)OC)(c4cc5c(cc4OC)N(C)C4C(O)(C(=O)OC)C(OC(C)=O)C6(CC)C=CCN7CCC54C76)CC(C3)C1O2 (stereo not drawn) | 6.87 | – | 7.34 | 11.9 | – | 35.1 | 16.2 | 18 | – | 0.282
19 | CCC1=CCC23C(=O)C=CC(=O)C2(C1)C(=O)c1cccc(OC)c1C3=O (stereo not drawn) | 28.1 | 59.5 | – | 53.7 | 22.6 | 30.1 | 37.2 | – | – | > 100
20 | CC(=O)NS(=O)(=O)c1ccc(NC(=O)c2c3ccccc3nc3ccccc23)cc1 | > 100 | > 100 | > 100 | > 100 | – | > 100 | > 100 | > 100 | > 100 | > 100
